Publication PMC12217109, “Development of novel benzamide class I selective lysine deacetylase inhibitors as potent anticancer agents” (Journal of Enzyme Inhibition and Medicinal Chemistry, 2025)
Like-named read-outs stand apart in the source and are kept apart here. Blank lines part the entries; values can stand above or below the compound they belong to.

Assays:
[1] = system: A2780 ovarian cancer cell line; experiment: MTT cellular viability assay, A2780; format: cell-based; conditions: Homo sapiens
786-0 = experiment: NCI-60 cytotoxicity screen; format: cell-based; conditions: Homo sapiens, NCI-60, 48 h, renal
Excerpt: (§1) Compounds 3–7 were submitted to the US National Cancer Institute (NIH, Bethesda, Maryland) for screening against the NCI-60 panel of human cancer cell lines, as per standard protocol.

A549 = experiment: NCI-60 cytotoxicity screen; format: cell-based; conditions: Homo sapiens, NCI-60, 48 h, NSCLC
Excerpt: as §1

ACHN = experiment: NCI-60 cytotoxicity screen; format: cell-based; conditions: Homo sapiens, NCI-60, 48 h, renal
Excerpt: as §1

BT 549 = experiment: NCI-60 cytotoxicity screen; format: cell-based; conditions: Homo sapiens, NCI-60, 48 h, breast
Excerpt: as §1

CAKI-1 = experiment: NCI-60 cytotoxicity screen; format: cell-based; conditions: Homo sapiens, NCI-60, 48 h, renal
Excerpt: as §1

COLO205 = experiment: NCI-60 cytotoxicity screen; format: cell-based; conditions: Homo sapiens, COLO 205; NCI-60, 48 h, colon
Excerpt: as §1

DU-145 = experiment: NCI-60 cytotoxicity screen; format: cell-based; conditions: Homo sapiens, NCI-60, 48 h, prostate
Excerpt: as §1

EKVX = experiment: NCI-60 cytotoxicity screen; format: cell-based; conditions: Homo sapiens, NCI-60, 48 h, NSCLC
Excerpt: as §1

H23 = experiment: NCI-60 cytotoxicity screen; format: cell-based; conditions: Homo sapiens, NCI-60, 48 h, NSCLC
Excerpt: as §1

H460 = experiment: NCI-60 cytotoxicity screen; format: cell-based; conditions: Homo sapiens, NCI-60, 48 h, NSCLC
Excerpt: as §1

H522 = experiment: NCI-60 cytotoxicity screen; format: cell-based; conditions: Homo sapiens, NCI-60, 48 h, NSCLC
Excerpt: as §1

HCT116 = experiment: NCI-60 cytotoxicity screen; format: cell-based; conditions: Homo sapiens, HCT-116; NCI-60, 48 h, colon
Excerpt: as §1

HCT15 = experiment: NCI-60 cytotoxicity screen; format: cell-based; conditions: Homo sapiens, HCT-15; NCI-60, 48 h, colon
Excerpt: as §1

HL-60 = experiment: NCI-60 cytotoxicity screen; format: cell-based; conditions: Homo sapiens, NCI-60, 48 h, leukaemia
Excerpt: as §1

HOP-62 = experiment: NCI-60 cytotoxicity screen; format: cell-based; conditions: Homo sapiens, NCI-60, 48 h, NSCLC
Excerpt: as §1

HS 578 T = experiment: NCI-60 cytotoxicity screen; format: cell-based; conditions: Homo sapiens, NCI-60, 48 h, breast
Excerpt: as §1

IGROV-1 = experiment: NCI-60 cytotoxicity screen; format: cell-based; conditions: Homo sapiens, NCI-60, 48 h, ovarian
Excerpt: as §1

KM12 = experiment: NCI-60 cytotoxicity screen; format: cell-based; conditions: Homo sapiens, NCI-60, 48 h, colon
Excerpt: as §1

LOX IMVI = experiment: NCI-60 cytotoxicity screen; format: cell-based; conditions: Homo sapiens, NCI-60, 48 h, melanoma
Excerpt: as §1

M14 = experiment: NCI-60 cytotoxicity screen; format: cell-based; conditions: Homo sapiens, NCI-60, 48 h, melanoma
Excerpt: as §1

MCF-7 = experiment: NCI-60 cytotoxicity screen; format: cell-based; conditions: Homo sapiens, MCF7; NCI-60, 48 h, breast
Excerpt: as §1

MDA-MB-435 = experiment: NCI-60 cytotoxicity screen; format: cell-based; conditions: Homo sapiens, NCI-60, 48 h, melanoma
Excerpt: as §1

NCI/ADR-RES = experiment: NCI-60 cytotoxicity screen; format: cell-based; conditions: Homo sapiens, NCI-60, 48 h, ovarian
Excerpt: as §1

OVCAR-3 = experiment: NCI-60 cytotoxicity screen; format: cell-based; conditions: Homo sapiens, NCI-60, 48 h, ovarian
Excerpt: as §1

OVCAR-4 = experiment: NCI-60 cytotoxicity screen; format: cell-based; conditions: Homo sapiens, NCI-60, 48 h, ovarian
Excerpt: as §1

OVCAR-8 = experiment: NCI-60 cytotoxicity screen; format: cell-based; conditions: Homo sapiens, NCI-60, 48 h, ovarian
Excerpt: as §1

PC-3 = experiment: NCI-60 cytotoxicity screen; format: cell-based; conditions: Homo sapiens, NCI-60, 48 h, prostate
Excerpt: as §1

RPMI-8226 = experiment: NCI-60 cytotoxicity screen; format: cell-based; conditions: Homo sapiens, NCI-60, 48 h, leukaemia
Excerpt: as §1

RXF 393 = experiment: NCI-60 cytotoxicity screen; format: cell-based; conditions: Homo sapiens, NCI-60, 48 h, renal
Excerpt: as §1

SF-268 = experiment: NCI-60 cytotoxicity screen; format: cell-based; conditions: Homo sapiens, NCI-60, 48 h, CNS
Excerpt: as §1

SF-295 = experiment: NCI-60 cytotoxicity screen; format: cell-based; conditions: Homo sapiens, NCI-60, 48 h, CNS
Excerpt: as §1

SF-539 = experiment: NCI-60 cytotoxicity screen; format: cell-based; conditions: Homo sapiens, NCI-60, 48 h, CNS
Excerpt: as §1

SK-MEL-28 = experiment: NCI-60 cytotoxicity screen; format: cell-based; conditions: Homo sapiens, NCI-60, 48 h, melanoma
Excerpt: as §1

SK-MEL-2 = experiment: NCI-60 cytotoxicity screen; format: cell-based; conditions: Homo sapiens, NCI-60, 48 h, melanoma
Excerpt: as §1

SK-MEL-5 = experiment: NCI-60 cytotoxicity screen; format: cell-based; conditions: Homo sapiens, NCI-60, 48 h, melanoma
Excerpt: as §1

SN12C = experiment: NCI-60 cytotoxicity screen; format: cell-based; conditions: Homo sapiens, NCI-60, 48 h, renal
Excerpt: as §1

SNB-19 = experiment: NCI-60 cytotoxicity screen; format: cell-based; conditions: Homo sapiens, NCI-60, 48 h, CNS
Excerpt: as §1

SNB-75 = experiment: NCI-60 cytotoxicity screen; format: cell-based; conditions: Homo sapiens, NCI-60, 48 h, CNS
Excerpt: as §1

SR = experiment: NCI-60 cytotoxicity screen; format: cell-based; conditions: Homo sapiens, NCI-60, 48 h, leukaemia
Excerpt: as §1

SW620 = experiment: NCI-60 cytotoxicity screen; format: cell-based; conditions: Homo sapiens, SW-620; NCI-60, 48 h, colon
Excerpt: as §1

U251 = experiment: NCI-60 cytotoxicity screen; format: cell-based; conditions: Homo sapiens, U-251; NCI-60, 48 h, CNS
Excerpt: as §1

UACC-62 = experiment: NCI-60 cytotoxicity screen; format: cell-based; conditions: Homo sapiens, NCI-60, 48 h, melanoma
Excerpt: as §1

UO-31 = experiment: NCI-60 cytotoxicity screen; format: cell-based; conditions: Homo sapiens, NCI-60, 48 h, renal
Excerpt: as §1

H322M = experiment: NCI-60 cytotoxicity screen; format: cell-based, human; conditions: Homo sapiens, NCI-H322M; NCI-60, 48 h, NSCLC
Excerpt: as §1

TK-10 = experiment: NCI-60 cytotoxicity screen; format: cell-based, human; conditions: Homo sapiens, TK-10; NCI-60, 48 h, renal
Excerpt: as §1

UACC-257 = experiment: NCI-60 cytotoxicity screen; format: cell-based, human; conditions: Homo sapiens, UACC-257; NCI-60, 48 h, melanoma
Excerpt: as §1

[2] = listed as A2780* of Table 4, ovarian, values as in Tables 1 and 2 (MTT), read-out: A2780* cytotoxicity IC50

Compound: Nc1ccccc1NC(=O)c1ccc(CNC(=O)OCc2cccnc2)cc1 [Compound 1, Entinostat, reference compound]
IC50 [1, 2]: 0.6 µM
IC50 (786-0): 4.97 µM
IC50 (A549): 3.28 µM
IC50 (ACHN): 2.33 µM
IC50 (BT 549): 4.14 µM
IC50 (CAKI-1): 1.17 µM
IC50 (COLO205): 2 µM
IC50 (DU-145): 2.26 µM
IC50 (EKVX): 3.26 µM
IC50 (H23): 3.22 µM
IC50 (H460): 0.83 µM
IC50 (H522): 0.7 µM
IC50 (HCT116): 0.8 µM
IC50 (HCT15): 8.47 µM
IC50 (HL-60): 0.85 µM
IC50 (HOP-62): 2.06 µM
IC50 (HS 578 T): 2.33 µM
IC50 (IGROV-1): 3.95 µM
IC50 (KM12): 4.31 µM
IC50 (LOX IMVI): 1.06 µM
IC50 (M14): 2.35 µM
IC50 (MCF-7): 0.64 µM
IC50 (MDA-MB-435): 0.96 µM
IC50 (NCI/ADR-RES): 2.38 µM
IC50 (OVCAR-3): 1.74 µM
IC50 (OVCAR-4): 1.31 µM
IC50 (OVCAR-8): 1.03 µM
IC50 (PC-3): 2.79 µM
IC50 (RPMI-8226): 0.9 µM
IC50 (RXF 393): 1.49 µM
IC50 (SF-268): 1.86 µM
IC50 (SF-295): 2.56 µM
IC50 (SF-539): 3.19 µM
IC50 (SK-MEL-28): 0.66 µM
IC50 (SK-MEL-2): 1.1 µM
IC50 (SK-MEL-5): 0.74 µM
IC50 (SN12C): 9.4 µM
IC50 (SNB-19): 6.34 µM
IC50 (SNB-75): 5.07 µM
IC50 (SR): 0.53 µM
IC50 (SW620): 1.3 µM
IC50 (U251): 2.03 µM
IC50 (UACC-62): 0.28 µM
IC50 (UO-31): 1.17 µM
IC50 (H322M): 4.79 µM
IC50 (TK-10): 0.29 µM
IC50 (UACC-257): 1.43 µM

IC50 ([1]; A2780, MTT, 96 h, read-out: A2780 IC50): 7.5 ± 0.7 µM
Compound: C=C(CN1CCN(c2ccccc2C(F)(F)F)CC1)c1ccc(C(=O)Nc2ccccc2N)cc1 [Compound 3, N-(2-aminophenyl)-4–(3-(4–(2-(trifluoromethyl)phenyl)piperazin-1-yl)prop-1-en-2-yl)benzamide]
IC50 [1, 2]: 7.5 µM
IC50 (786-0): 2.36 µM
IC50 (A549): 4.17 µM
IC50 (ACHN): 7.19 µM
IC50 (BT 549): 2.67 µM
IC50 (CAKI-1): 7.96 µM
IC50 (COLO205): 11.5 µM
IC50 (DU-145): 7.52 µM
IC50 (EKVX): 6.7 µM
IC50 (H23): 5.93 µM
IC50 (H460): 5.58 µM
IC50 (H522): 1.91 µM
IC50 (HCT116): 3.09 µM
IC50 (HCT15): 4.89 µM
IC50 (HL-60): 0.04 µM
IC50 (HOP-62): 4.76 µM
IC50 (HS 578 T): 12.8 µM
IC50 (IGROV-1): 6.03 µM
IC50 (KM12): 2.04 µM
IC50 (LOX IMVI): 5.86 µM
IC50 (M14): 4.47 µM
IC50 (MCF-7): 4.48 µM
IC50 (MDA-MB-435): 2.72 µM
IC50 (NCI/ADR-RES): 1.87 µM
IC50 (OVCAR-3): 5.92 µM
IC50 (OVCAR-4): 6.53 µM
IC50 (OVCAR-8): 3.84 µM
IC50 (PC-3): 1.91 µM
IC50 (RPMI-8226): 0.16 µM
IC50 (RXF 393): 1.67 µM
IC50 (SF-268): 4.55 µM
IC50 (SF-295): 5.97 µM
IC50 (SF-539): 3.27 µM
IC50 (SK-MEL-28): 10.3 µM
IC50 (SK-MEL-2): 10.3 µM
IC50 (SK-MEL-5): 3.01 µM
IC50 (SN12C): 6.43 µM
IC50 (SNB-19): 24.4 µM
IC50 (SNB-75): 2.82 µM
IC50 (SR): 2.36 µM
IC50 (SW620): 3.4 µM
IC50 (U251): 4.63 µM
IC50 (UACC-62): 9.16 µM
IC50 (UO-31): 1 µM
IC50 (H322M): 11.4 µM
IC50 (TK-10): 4.63 µM
IC50 (UACC-257): 4.67 µM
